Data published in PMC3388080 (PLoS ONE, 2012).
Where two headings read alike, the source gives them in different places.

Columns and labels:
[1] = target: T1, rHCRTR1 (Rattus norvegicus, UniProt P56718); experiment: Inhibition of [^3H]almorexant binding to HEK293-rHCRTR1 membranes; conditions: read-out: Ki
T1 construct: expressed in transfected cells; host or cells: HEK293 (transient transfection, pCI-Neo vector), membrane preparation
T1 sequence (P56718 1-416): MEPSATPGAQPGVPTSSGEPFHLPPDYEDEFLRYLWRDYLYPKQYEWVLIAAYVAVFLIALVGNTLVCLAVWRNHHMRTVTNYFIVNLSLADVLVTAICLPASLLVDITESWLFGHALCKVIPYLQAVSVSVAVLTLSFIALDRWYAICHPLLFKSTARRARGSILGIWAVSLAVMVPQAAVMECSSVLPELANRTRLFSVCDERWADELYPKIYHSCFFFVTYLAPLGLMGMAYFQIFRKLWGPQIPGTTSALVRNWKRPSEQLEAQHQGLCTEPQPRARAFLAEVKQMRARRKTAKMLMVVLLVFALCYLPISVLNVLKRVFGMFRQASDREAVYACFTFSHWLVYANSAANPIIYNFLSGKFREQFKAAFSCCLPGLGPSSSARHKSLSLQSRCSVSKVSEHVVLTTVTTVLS
Description: (§1) The rat cDNAs encoding HCRTR1 (Accession No. P56718) and HCRTR2 (Accession No. P56719) were subcloned into pCI-Neo expression vectors (Promega, Madison, WI) and used to transfect HEK293 cells (acquired commercially from ATCC-LGC, Molsheim, France) as previously described.

[2] = target: T2, rHCRTR2 (Rattus norvegicus, UniProt P56719); experiment: Inhibition of [^3H]almorexant binding to HEK293-rHCRTR2 membranes
T2 construct: expressed in transfected cells; host or cells: HEK293 (transient transfection, pCI-Neo vector), membrane preparation
T2 sequence (P56719 whole entry): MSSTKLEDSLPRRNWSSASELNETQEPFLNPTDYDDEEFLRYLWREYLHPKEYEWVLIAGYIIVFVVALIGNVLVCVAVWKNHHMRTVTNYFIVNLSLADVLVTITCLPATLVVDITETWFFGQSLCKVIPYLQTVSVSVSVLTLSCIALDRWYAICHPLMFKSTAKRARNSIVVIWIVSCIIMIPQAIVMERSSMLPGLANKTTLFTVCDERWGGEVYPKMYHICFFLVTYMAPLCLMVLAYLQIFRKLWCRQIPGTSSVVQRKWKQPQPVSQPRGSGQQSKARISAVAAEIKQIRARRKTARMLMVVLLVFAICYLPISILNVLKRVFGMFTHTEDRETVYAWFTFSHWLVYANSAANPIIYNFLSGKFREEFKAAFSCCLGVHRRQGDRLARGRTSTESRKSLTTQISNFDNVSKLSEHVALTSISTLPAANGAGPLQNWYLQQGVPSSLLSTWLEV
Description: as §1

[3] = in vivo; conditions: rat, in vivo
Experimental: (§2) Pharmacokinetic analyses were performed at F. Hoffmann-La Roche as described in supporting Materials and Methods S1.
(§3) Cmax, maximum concentration; Tmax, time at which maximum concentration was observed; AUC, area under the plasma concentration vs. time curve; CL, clearance; Vss, volume of distribution at steady state; T1/2, terminal half-life; F, bioavailability; Fu, Fraction unbound. Plasma values are mean, n=2.

[4] = in vitro; conditions: human, plasma
Experimental: as §2

[5] = in vitro; conditions: rat, plasma
Experimental: as §2, §3

[6] = Stability in human plasma
Experimental: as §2

[7] = Stability in rat plasma
Experimental: as §2

[8] = target: T1, rHCRTR1; parameters: method as in PMID 14691055; conditions: cited from earlier work
[9] = parameters: method as in PMID 19363060; conditions: 30 mg/kg, cited from earlier work
[10] = target: T3, HCRTR1 (Rattus norvegicus, UniProt P56718); parameters: method as in PMID 19363060; conditions: subcutaneous 30 mg/kg; tenia tecta; cited from earlier work
T3 construct: from tissue; host or cells: coronal brain sections of male Sprague-Dawley rats (locus coeruleus)
T3 sequence (P56718 1-416): T1 sequence (P56718 1-416)

Cc1cc(NC(=O)Nc2ccc(N(C)C)cc2)c2cc(F)cc(F)c2n1 [SB-408124, 1-(6,8-difluoro-2-methyl-quinolin-4-yl)-3-(4-dimethylamino-phenyl)-urea]
Ki [1]: 45.7 ± 4.1 nM
Ki [2]: 5370 ± 2200 nM
AUC/Dose ([3]; Wistar, iv): 7996.40 ng/h/mL
Tmax ([3]; Wistar, iv): 0 h
Vd ([3]; Wistar, iv): 0.2 L/kg
clearance ([3]; Wistar, iv): 2.1 mL/min/kg
half-life ([3]; Wistar, iv): 1.12 h
Cmax/Dose ([3]; Wistar, iv, 12.1 mg/kg): 4738.30 ng/mL
AUC/Dose ([3]; Wistar, po): 3455.70 ng/h/mL
Tmax ([3]; Wistar, po): 2.67 h
bioavailability ([3]; Wistar, po): 43.2%
half-life ([3]; Wistar, po): 1.95 h
Cmax/Dose ([3]; Wistar, po, 18.16 mg/kg): 704.8 ng/mL
Vss (in words) [3]: low
systemic plasma clearance (in words) [3]: low
oral bioavailability (in words) ([3]; po): medium
fraction unbound [4]: 0.003
fraction unbound [5]: < 0.001
stability in plasma ([6]; 1 h): 94%
stability in plasma ([6]; 4 h): 88%
stability in plasma ([7]; 1 h): 101%
stability in plasma ([7]; 4 h): 107%
Ki [8]: 26.9 nM
brain-to-plasma ratio ([9]; calculated from Cmax values): 0.012
Cmax ([9]; read-out: plasma Cmax): 84.3 µM
HCRTR1 occupancy [10]: 90%
